This is an account of results in patent US10383880B2 (Reset Therapeutics, Inc., priority 2012, dated 2019).

For the assay, the system named is Per2-dLuc U2OS reporter cells. The experiment in a line: Per2 assay for evaluating the potency of test compounds (high-throughput circadian assay). Format: cell-based. Particulars: stable U2OS reporter cells harboring Per2-dLuc, luminescence monitored over 4-5 days at 35° C. The essentials:
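Compounds (0.5% DMSO final) were added right after serum-shock synchronization of Per2-dLuc U2OS reporter cells in minimal medium containing 1.0 mM beetle luciferin. Reporter luminescence was followed at 35 °C for 4–5 days to extract rhythm period, amplitude and phase, and EC50 values were obtained from these.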

As a reminder, the EC50 is the concentration at which the effect is half-maximal.

In turn, `CS(=O)(=O)N(CC(O)Cn1c2ccc(F)cc2c2cc(F)ccc21)c1ccc(-c2c[nH]cn2)cc1` (centres unmarked) [Compound 204, N-(4-(1H-Imidazol-4-yl)phenyl)-N-(3-(3,6-difluoro-9H-carbazol-9-yl)-2-hydroxypropyl)methanesulfonamide] registered an EC50 (Homo sapiens, U2OS) of 2550 nM.
Same read-out and setting: with `O=S1(=O)CCCCN1CC(O)Cn1c2cccc(F)c2c2c(F)cccc21` (centres unmarked) [Compound 105, N-(3-(4,5-Difluoro-9H-carbazol-9-yl)-2-hydroxypropyl)-1,2-thiazinane 1,1-dioxide] the figure was 5200 nM; with `CN(CC(O)Cn1c2ccc(F)cc2c2c(F)cccc21)S(C)(=O)=O` (centres unmarked) [Compound 110, N-(3-(3,5-Difluoro-9H-carbazol-9-yl)-2-hydroxypropyl)-N-methylmethanesulfonamide], 3630 nM.
As for `CC(C)(C(O)Cn1c2ccc(F)cc2c2cc(F)ccc21)N1CCCS1(=O)=O` (centres unmarked) [Compound 244, 2-(4-(3,6-Difluoro-9H-carbazol-9-yl)-3-hydroxy-2-methylbutan-2-yl)isothiazolidine-1,1-dioxide], for the setting “Homo sapiens, U2OS”, the response was half-maximal at 57 nM (EC50).
Still for that read-out and setting: the figure for `CCCN(CC(O)Cn1c2ccc(F)cc2c2ccc(F)cc21)S(C)(=O)=O` (centres unmarked) [Compound 163, N-(3-(2,6-Difluoro-9H-carbazol-9-yl)-2-hydroxypropyl)-N-propylmethanesulfonamide] is 206 nM; for `CS(=O)(=O)N(CC(O)Cn1c2ccccc2c2ccccc21)C1(C#N)CC1` (centres unmarked) [Compound 125, N-(3-(9H-Carbazol-9-yl)-2-hydroxypropyl)-N-(1-cyanocyclopropyl)methanesulfonamide] it is 2610 nM; for `CC1CCCCC1N(CC(O)Cn1c2ccccc2c2ccccc21)S(C)(=O)=O` (single isomer, unassigned) [Compound 127, N-(3-(9H-Carbazol-9-yl)-2-hydroxypropyl)-N-(2-methylcyclohexyl)methanesulfonamide] it is 4010 nM.
Take `CC1CCCC1N(CC(O)Cn1c2ccc(F)cc2c2cc(F)ccc21)S(C)(=O)=O` (single isomer, unassigned) [Compound 193B, N-(3-(3,6-Difluoro-9H-carbazol-9-yl)-2-hydroxypropyl)-N-(2-methylcyclopentyl)methanesulfonamide]: the EC50 was determined as 654 nM. In other words, the sub-micromolar range.
In turn, `CS(=O)(=O)N(CC(O)Cn1c2ccccc2c2ccccc21)C1CCCC(F)(F)C1` (centres unmarked) [Compound 134, N-(3-(9H-Carbazol-9-yl)-2-hydroxypropyl)-N-(3,3-difluorocyclohexyl)methanesulfonamide] showed an EC50 (Homo sapiens, U2OS) of 1080 nM.
Same read-out and setting: the figure for `CS(=O)(=O)N(CC(O)Cn1c2ccc(F)cc2c2cc(F)ccc21)c1ccc(OC2CC2)cc1` (centres unmarked) [Compound 212, N-(4-Cyclopropoxyphenyl)-N-(3-(3,6-difluoro-9H-carbazol-9-yl)-2-hydroxypropyl)methanesulfonamide] is 1800 nM; for `CS(=O)(=O)N(CC(O)Cn1c2ccc(F)cc2c2ccc(F)cc21)C1CC1` (centres unmarked) [Compound 167, N-Cyclopropyl-N-(3-(2,6-difluoro-9H-carbazol-9-yl)-2-hydroxypropyl)methanesulfonamide] it is 267 nM.
Turning to `CC1(C)CCC(N(CC(O)Cn2c3ccccc3c3ccccc32)S(C)(=O)=O)CC1` (centres unmarked) [Compound 141, N-(3-(9H-Carbazol-9-yl)-2-hydroxypropyl)-N-(4,4-dimethylcyclohexyl)methanesulfonamide], it took 846 nM to reach a half-maximal effect (Homo sapiens, U2OS) (EC50).
Regarding `COc1ccc(N(CC(O)Cn2c3ccccc3c3ccccc32)S(C)(=O)=O)cc1` (centres unmarked) [Compound 21, N-(3-(9H-Carbazol-9-yl)-2-hydroxypropyl)-N-(4-methoxyphenyl)methanesulfonamide], the 50% effective concentration (EC50) (Homo sapiens, U2OS) was 440 nM.
On the same count and under the same terms, with `O=S(=O)(CC(F)(F)F)N(Cc1ccco1)CC(O)Cn1c2ccccc2c2ccccc21` (centres unmarked) [Compound 7, N-(3-(9H-Carbazol-9-yl)-2-hydroxypropyl)-2,2,2-trifluoro-N-(furan-2-ylmethyl)ethanesulfonamide] the figure was 2100 nM; with `O=S1(=O)CCc2ccccc2N1CC(O)Cn1c2ccccc2c2ccccc21` (centres unmarked) [Compound 37, N-(3-(9H-Carbazol-9-yl)-2-hydroxypropyl)-3,4-dihydro-1H-benzo[c][1,2]thiazine 2,2-dioxide], 34 nM.
The same measure, in the same setting: with `CS(=O)(=O)N(Cc1ccc(F)cc1)CC(O)Cn1c2ccccc2c2ccccc21` (centres unmarked) [Compound 60, N-(3-(9H-Carbazol-9-yl)-2-hydroxypropyl)-N-(4-fluorobenzyl)methanesulfonamide] the figure was 1220 nM; with `CC(C)N(CC(O)Cn1c2cc(F)ccc2c2ccc(F)cc21)S(C)(=O)=O` (centres unmarked) [Compound 159, N-(3-(2,7-Difluoro-9H-carbazol-9-yl)-2-hydroxypropyl)-N-isopropylmethanesulfonamide], 505 nM; with `CS(=O)(=O)N(CC(O)Cn1c2ccccc2c2ccccc21)CC1CCCO1` (centres unmarked) [Compound 51, N-(3-(9H-Carbazol-9-yl)-2-hydroxypropyl)-N-((tetrahydrofuran-2-yl)methyl)methanesulfonamide], 371 nM.
On the same count and under the same terms, with `CS(=O)(=O)N(CC(O)Cn1c2ccccc2c2ccccc21)c1cccc(Cl)c1` (centres unmarked) [Compound 64, N-(3-(9H-Carbazol-9-yl)-2-hydroxypropyl)-N-(3-chlorophenyl)methanesulfonamide] the figure was 1000 nM.
For the compound `O=S(=O)(c1ccccc1)N(Cc1ccco1)CC(O)Cn1c2ccccc2c2ccccc21` (centres unmarked) [Compound 4, N-(3-(9H-Carbazol-9-yl)-2-hydroxypropyl)-N-(furan-2-ylmethyl)benzenesulfonamide], where the note is “Homo sapiens, U2OS”, the EC50 is 2500 nM.
On the same count and under the same terms, with `CN(CC(O)Cn1c2cc(F)ccc2c2c(F)cccc21)S(C)(=O)=O` (centres unmarked) [Compound 98, N-(3-(2,5-Difluoro-9H-carbazol-9-yl)-2-hydroxypropyl)-N-methylmethanesulfonamide] the figure was 8100 nM; with `CC(O)(CN1CCNS1(=O)=O)Cn1c2ccc(F)cc2c2cc(F)ccc21` (centres unmarked) [Compound 176], 125 nM; with `COCCN(CC(O)Cn1c2cc(F)ccc2c2ccc(F)cc21)S(C)(=O)=O` (centres unmarked) [Compound 95, N-(3-(2,7-Difluoro-9H-carbazol-9-yl)-2-hydroxypropyl)-N-(2-methoxyethyl)methanesulfonamide], 2740 nM.
Still for that read-out and setting: the figure for `CS(=O)(=O)N(CC(O)Cn1c2ccccc2c2ccccc21)C1CCCC1` (centres unmarked) [Compound 58, N-(3-(9H-Carbazol-9-yl)-2-hydroxypropyl)-N-cyclopentylmethanesulfonamide] is 150 nM; for `CC(O)(CN1CCC(F)S1(=O)=O)Cn1c2ccc(F)cc2c2cc(F)ccc21` (centres unmarked) [Compound 184, 2-(3-(3,6-Difluoro-9H-carbazol-9-yl)-2-hydroxy-2-methylpropyl)-5-fluoroisothiazolidine-1,1-dioxide] it is 155 nM; for `COC1CCS(=O)(=O)N(CC(O)Cn2c3ccccc3c3ccccc32)C1` (centres unmarked) [Compound 112, N-(3-(9H-Carbazol-9-yl)-2-hydroxypropyl)-4-methoxy-1,2-thiazinane-1,1-dioxide] it is 44 nM.
On to `CC(O)(CN(Cc1ccco1)S(C)(=O)=O)Cn1c2ccccc2c2ccccc21` (centres unmarked) [Compound 240, N-(3-(9H-Carbazol-9-yl)-2-hydroxy-2-methylpropyl)-N-(furan-2-yl-methyl)methane-sulfonamide], for which a half-maximal effect (Homo sapiens, U2OS) (EC50) was put at 1060 nM.
Under “Homo sapiens, U2OS”, `O=S1(=O)C(F)CCN1CC(O)Cn1c2ccc(F)cc2c2cc(F)ccc21` (centres unmarked) [Compound 183, 2-(3-(3,6-Difluoro-9H-carbazol-9-yl)-2-hydroxypropyl)-5-fluoroisothiazolidine-1,1-dioxide] gave an EC50 of 53 nM.
The compound `COCCN(CC(O)Cn1c2ccccc2c2ccccc21)S(C)(=O)=O` (centres unmarked) [Compound 30, N-(3-(9H-Carbazol-9-yl)-2-hydroxypropyl)-N-(2-methoxyethyl)methanesulfonamide] registered an EC50 (Homo sapiens, U2OS) of 390 nM.
Same read-out and setting: with `Cc1cccc(N(CC(O)Cn2c3ccccc3c3ccccc32)S(C)(=O)=O)c1` (centres unmarked) [Compound 63, N-(3-(9H-Carbazol-9-yl)-2-hydroxypropyl)-N-m-tolylmethanesulfonamide] the figure was 199 nM.
In turn, `O=S(=O)(C1CCOC1)N(Cc1ccco1)CC(O)Cn1c2ccccc2c2ccccc21` (centres unmarked) [Compound 85, N-(3-(9H-Carbazol-9-yl)-2-hydroxypropyl)-N-(furan-2-ylmethyl)tetrahydrofuran-3-sulfonamide] came in with an EC50 (Homo sapiens, U2OS) of 510 nM.
Still for that read-out and setting: the figure for `O=S1(=O)N(CC(O)Cn2c3ccc(F)cc3c3cc(F)ccc32)CCN1C1CCCCC1` (centres unmarked) [Compound 233] is 418 nM.
